# Patent publication US11839636B1, “Pharmaceutical composition based on plant raw materials: #2.1” (priority 2022, dated 2023)
# Test system: malondialdehyde (MDA)
# Test: In vitro study of antioxidant effect (FeSO4-activated malondialdehyde in blood serum)
# Assay type: biochemical
# Settings: 0.1 ml sample, 0.3 ml blood serum, FeSO4, 37° C. 15 min, MDA at 535 nm
# Method: Three samples were examined to evaluate antioxidant effectiveness. […] Method: evaluation was done by determining the intermediate product of the lipid oxidation process, malondialdehyde (MDA). Amount of MDA increases under the influence of ferrous sulfate (FeSO4), this moment was used as a model for the activated oxidation process. Sequence of analysis: 0.1 ml of test sample, 1 μmol of ferrous sulfate solution was added to 0.3 ml of blood serum and incubated at 37° C. for 15 min. Then 3 ml of 3% orthophosphoric acid and 1 ml of 0.6% thiobaric acid were added to the incubation mixture. The mixture was placed on a boiling water bath for one hour. Then 4 ml of butanol was added. The obtained mixture was centrifuged for 10 minutes at 3000 rpm. In the obtained supernatant, the optical density (E) was determined on a spectrometer on a wavelength of 535 nm. MDA concentration (C) was determined by the formula C=E×84.5 μmol/L. The difference between the background concentration of MDA and iron activated was 100%, while the antioxidant activity of the samples was conditionally expressed in %.
smiles,measurement,value
O=C(O)CN(CCN(CC(=O)O)CC(=O)O)CC(=O)O [Ethylenediaminetetraacetate],Relative Antioxidant Activity in %,92%
